Test results reported in patent US8710252B2, “Hepodxilin analog enantiomers” (priority 2006, dated 2014).
Entries after “also recorded” stand apart in the source; their conditions may differ.

Biological target: T1, Ga14-DBD-PPAR gamma-LBD fusion protein (Homo sapiens, UniProt P37231)
T1 construct: expressed in transfected cells; host or cells: mouse embryonic fibroblasts (MEFs) or ME3 cells
T1 sequence (P37231 238-503 limits assumed): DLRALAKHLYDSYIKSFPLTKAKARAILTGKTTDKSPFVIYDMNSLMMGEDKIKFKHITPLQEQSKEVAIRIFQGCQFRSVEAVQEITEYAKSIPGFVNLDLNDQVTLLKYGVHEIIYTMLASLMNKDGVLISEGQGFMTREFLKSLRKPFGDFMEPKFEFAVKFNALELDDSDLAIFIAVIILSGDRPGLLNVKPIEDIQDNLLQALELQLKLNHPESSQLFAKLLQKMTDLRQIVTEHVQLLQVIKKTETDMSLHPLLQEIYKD
Assay: PPAR gamma transactivation assay (Gal4-PPAR gamma LBD / UASx4-TK-luc reporter)
Format: cell-based
Excerpt: The UASx4-TK-luc reporter construct (where UAS refers to “upstream activator sequence”) contains four Ga14-responsive elements. The plasmid Ga14-PPAR gammaLBD encodes a Ga14-DBD-PPAR gamma-LBD fusion protein (i.e. the DNA-binding domain, DBD, of Ga14 fused to the ligand-binding domain, LBD, of PPAR gamma) capable of transactivating the UASx4-TK-luc reporter plasmid by binding to the UAS. The CMV-beta-galactosidase plasmid (where CMV is cytomegalovirus) was used for normalization of experimental values.
The cells were replated, typically in 24 well plates, so that at the time of transfection the cells were 50-70% confluent.
Briefly, per well in a 24 well plate, UASx4TKIuc (0.2 microg) Ga14-PPAR gammaLBD (or pM-hPPAR gamma-LBD; 0.1 microg) and CMV-beta-galactosidase (0.05 microg) in 30 μL DMEM (free of serum and antibiotics) was mixed with 30 microL DMEM (free of serum and antibiotics) containing 1 microL metafectenein. The mixture was incubated at room temperature for 20 min to allow formation of nucleic acid-lipid complexes and then approximately 60 micros was added to each well containing the 50-70% confluent cells. […] Cells were harvested after 12-24 hours and luciferase and beta-galactosidase activities were measured according to standard protocols.
Each experiment was carried out with triplicate samples with 0.1, 1 or 10 microM racemate or purified enantiomer.

PPAR Activation as % of positive control (Avandia) (Experiment 1, 0.1 microM)	PPAR Activation as % of positive control (Avandia) (Experiment 1, 1 microM)	PPAR Activation as % of positive control (Avandia) (Experiment 1, 10 microM)	PPAR Activation as % of positive control (Avandia) (Experiment 2, 0.1 microM)	PPAR Activation as % of positive control (Avandia) (Experiment 2, 1 microM)	PPAR Activation as % of positive control (Avandia) (Experiment 3, 0.1 microM)	PPAR Activation as % of positive control (Avandia) (Experiment 3, 1 microM)	PPAR gamma transactivation, result in words	PPAR Activation as % of positive control (Avandia) (10 microM racemate, Table 3)	Structure (SMILES)	PPAR Activation as % of positive control (Avandia) (Experiment 2, 10 microM)	PPAR Activation as % of positive control (Avandia) (Experiment 3, 10 microM)
5 +/− 1 % of positive control (Avandia)	11 +/− 1 % of positive control (Avandia)	55 +/− 8 % of positive control (Avandia)	4 +/− 1 % of positive control (Avandia)	4 +/− 1 % of positive control (Avandia)	7 +/− 3 % of positive control (Avandia)	11 +/− 2 % of positive control (Avandia)	–	–	CCCCC/C=C\CC1CC1/C=C/C(O)C/C=C\CCCC(=O)OC (stereo not drawn) [Compound E, 8R-hydroxy-11S,12S-cyclopropyl-eicosa-5Z,9E,14Z-trienoic acid methyl ester]	14 +/− 2 % of positive control (Avandia)	27 +/− 7 % of positive control (Avandia)
17 +/− 2 % of positive control (Avandia)	57 +/− 6 % of positive control (Avandia)	–	7 +/− 1 % of positive control (Avandia)	35 +/− 5 % of positive control (Avandia)	6 +/− 2 % of positive control (Avandia)	34 +/− 2 % of positive control (Avandia)	–	21 +/− 2 % of positive control (Avandia)	CCCCC/C=C\CC1CC1/C=C/C(O)C/C=C\CCCC(=O)OC (stereo not shown) [PBT-1, 8-hydroxy-11,12-cyclopropyl-eicosa-5Z,9E,14Z-trienoic acid methyl ester, reference compound]	–	58 +/− 12 % of positive control (Avandia)
–	–	–	–	–	–	–	active	16 +/− 4 % of positive control (Avandia)	CCCCC/C=C\CC1CC1/C=C/C(O)C/C=C\CCCC(=O)O (stereo not shown) [PBT-01, 8-hydroxy-11,12-cyclopropyl-eicosa-5Z,9E,14Z-trienoic acid, reference compound]	–	–
–	–	–	–	–	–	–	–	27 +/− 5 % of positive control (Avandia)	CCCCC/C=C\CC1CC1/C=C/C(O)C/C=C\CCCC(=O)OC (stereo not shown) [PBT-2, 8-hydroxy-11,12-cyclopropyl-eicosa-5Z,9E,14Z-trienoic acid methyl ester, reference compound]	–	–
–	–	–	–	–	–	–	active	17 +/− 2 % of positive control (Avandia)	CCCCC/C=C\CC1CC1/C=C/C(O)C/C=C\CCCC(=O)O (stereo not shown) [PBT-02, 8-hydroxy-11,12-cyclopropyl-eicosa-5Z,9E,14Z-trienoic acid, reference compound]	–	–
–	–	–	–	–	–	–	active	14 +/− 4 % of positive control (Avandia)	CCCCC/C=C\CC1CC1C(O)/C=C\C/C=C\CCCC(=O)O (stereo not shown) [PBT-03, 10-hydroxy-11,12-cyclopropyl-eicosa-5Z,8Z,14Z-trienoic acid, reference compound]	–	–

Structure (SMILES)	PPAR Activation as % of positive control (Avandia) (Experiment 1, 0.1 microM)	PPAR Activation as % of positive control (Avandia) (Experiment 1, 1 microM)	PPAR Activation as % of positive control (Avandia) (Experiment 1, 10 microM)	PPAR Activation as % of positive control (Avandia) (Experiment 2, 0.1 microM)	PPAR Activation as % of positive control (Avandia) (Experiment 2, 1 microM)	PPAR Activation as % of positive control (Avandia) (Experiment 3, 0.1 microM)	PPAR Activation as % of positive control (Avandia) (Experiment 3, 1 microM)	PPAR gamma transactivation, result in words	PPAR Activation as % of positive control (Avandia) (10 microM racemate, Table 3)	PPAR Activation as % of positive control (Avandia) (Experiment 2, 10 microM)	PPAR Activation as % of positive control (Avandia) (Experiment 3, 10 microM)
CCCCC/C=C\C[C@@H]1C[C@H]1/C=C/[C@@H](O)C/C=C\CCCC(=O)OC [Compound F, 8S-hydroxy-11R,12R-cyclopropyl-eicosa-5Z,9E,14Z-trienoic acid methyl ester]	7 +/− 1 % of positive control (Avandia)	12 +/− 7 % of positive control (Avandia)	92 +/− 7 % of positive control (Avandia)	5 +/− 1 % of positive control (Avandia)	5 +/− 5 % of positive control (Avandia)	8 +/− 2 % of positive control (Avandia)	18 +/− 5 % of positive control (Avandia)	significantly more activity than Compound E or the racemic mixture of PBT-1; also recorded: significantly better PPAR gamma transactivation activity; also recorded: higher fold PPAR gamma transactivation than compound E or the PBT-1 racemic mixture	–	69 +/− 12 % of positive control (Avandia)	78 +/− 34 % of positive control (Avandia)
